Source: patent US20200024278A1, “COMPOSITION COMPRISING ANTIBIOTIC COMPOUND AND AN HETEROCYCLIC COMPOUND AND THEIR USE IN PREVENTING OR TREATING BACTERIAL INFECTIONS” (MUTABILIS, priority 2016, published 2020)

Experiments:
Assay in all cases: MIC, broth microdilution (CLSI), substance alone or ATB combined with compound at 4 or 8 μg/mL
ECL P99 = assay type: cell-based, E. cloacae; conditions: ECL P99
How it was run: (§1)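 Antibiotic MICs were determined in presence of fixed compound at 4 or 8 μg/mL, and compound MICs alone, by visual growth inhibition. Inoculum 5·10^5 CFU/mL in ca-MHB, incubated 35 °C for 16-20 h per CLSI-M7-A7. Glucose-6-phosphate (25 μg/ml) added when fosfomycin was tested.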

KPN BAA-1898 = assay type: cell-based, K. pneumoniae; conditions: KPN BAA-1898
How it was run: as §1

KPN UFR42 = assay type: cell-based, K. pneumoniae; conditions: KPN UFR42
How it was run: as §1

KPN 6299 = assay type: cell-based, K. pneumoniae
How it was run: as §1

SPN 49619 = assay type: cell-based, S. pneumoniae; conditions: SPN 49619
How it was run: as §1

SAU 29213 = assay type: cell-based, S. aureus; conditions: SAU 29213
How it was run: as §1

[1] = Klebsiella pneumoniae, antibiotic alone, read-out: MIC ATB alone

For `NCC[C@H](O)C(=O)N[C@@H]1C[C@H](N)[C@@H](O[C@H]2O[C@H](CN)[C@@H](O)[C@H](O)[C@H]2O)[C@H](O)[C@H]1O[C@H]1O[C@H](CO)[C@@H](O)[C@H](N)[C@H]1O` [AN, Amikacin, reference compound], the “MIC ATB combined with Example 11 @8 μg/ml” value (ECL P99; with Example 11 at 8 μg/ml) was <0.031 µg/mL, the “MIC ATB combined with Example 12 @8 μg/ml” value (ECL P99; with Example 12 at 8 μg/ml) was <0.031 µg/mL and the “MIC ATB combined with Example 13 @8 μg/ml” value (ECL P99; with Example 13 at 8 μg/ml) was 0.125 µg/mL. For the same compound, the “MIC ATB combined with Example 14 @8 μg/ml” value (ECL P99; with Example 14 at 8 μg/ml) was <0.031 µg/mL, the “MIC ATB combined with Example 15 @4 μgml” value (ECL P99; with Example 15 at 4 μg/ml) was “<=0.031 μg/mL” and the “MIC ATB combined with Example 16 @4 μg/ml” value (ECL P99; with Example 16 at 4 μg/ml) was <0.031 µg/mL. For the same compound, the MIC (ECL P99; Enterobacter cloacae, antibiotic alone, read-out: MIC ATB alone) was 0.063 µg/mL, the “MIC ATB combined with Example 1 @8 μg/ml” value (KPN BAA-1898; with Example 1 @8 μg/ml) was 0.25 µg/mL and the “MIC ATB combined with Example 1 @8 μg/ml” value (KPN BAA-1898; with Example 1 at 8 μg/ml) was 0.25 µg/mL. For the same compound, the “MIC ATB combined with Example 7 @8 μgml” value (KPN BAA-1898; with Example 7 at 8 μg/ml) was 0.125 µg/mL, the “MIC ATB combined with Example 9 @4 μg/ml” value (KPN BAA-1898; with Example 9 @4 μg/ml) was <0.031 µg/mL and the “MIC ATB combined with Example 9 @4 μg/ml” value (KPN BAA-1898; with Example 9 at 4 μg/ml) was <0.031 µg/mL. For the same compound, the “MIC ATB combined with Example 11 @8 μg/ml” value (KPN BAA-1898; with Example 11 at 8 μg/ml) was <0.031 µg/mL, the “MIC ATB combined with Example 12 @8 μg/ml” value (KPN BAA-1898; with Example 12 at 8 μg/ml) was <0.031 µg/mL and the “MIC ATB combined with Example 13 @8 μg/ml” value (KPN BAA-1898; with Example 13 at 8 μg/ml) was 0.25 µg/mL. For the same compound, the “MIC ATB combined with Example 14 @8 μg/ml” value (KPN BAA-1898; with Example 14 at 8 μg/ml) was <0.031 µg/mL, the “MIC ATB combined with Example 15 @4 μgml” value (KPN BAA-1898; with Example 15 at 4 μg/ml) was “<=0.031 μg/mL” and the “MIC ATB combined with Example 16 @4 μg/ml” value (KPN BAA-1898; with Example 16 at 4 μg/ml) was <0.031 µg/mL. For the same compound, the MIC (KPN BAA-1898; Klebsiella pneumoniae, BAA1898, antibiotic alone, read-out: MIC ATB alone) was 1 µg/mL, the “MIC ATB combined with Example 1 @8 μg/ml” value (KPN UFR42; with Example 1 @8 μg/ml) was >32 µg/mL and the “MIC ATB combined with Example 1 @8 μg/ml” value (KPN UFR42; with Example 1 at 8 μg/ml) was >32 µg/mL. The “MIC ATB combined with Example 7 @8 μgml” value (KPN UFR42; with Example 7 at 8 μg/ml) was >32 µg/mL, the “MIC ATB combined with Example 9 @4 μg/ml” value (KPN UFR42; with Example 9 @4 μg/ml) was >32 µg/mL and the “MIC ATB combined with Example 9 @4 μg/ml” value (KPN UFR42; with Example 9 at 4 μg/ml) was >32 µg/mL. For the same compound, the “MIC ATB combined with Example 11 @8 μg/ml” value (KPN UFR42; with Example 11 at 8 μg/ml) was 0.25 µg/mL, the “MIC ATB combined with Example 12 @8 μg/ml” value (KPN UFR42; with Example 12 at 8 μg/ml) was <0.031 µg/mL and the “MIC ATB combined with Example 13 @8 μg/ml” value (KPN UFR42; with Example 13 at 8 μg/ml) was >32 µg/mL. For the same compound, the “MIC ATB combined with Example 14 @8 μg/ml” value (KPN UFR42; with Example 14 at 8 μg/ml) was <0.031 µg/mL, the “MIC ATB combined with Example 15 @4 μgml” value (KPN UFR42; with Example 15 at 4 μg/ml) was >32 µg/mL and the “MIC ATB combined with Example 16 @4 μg/ml” value (KPN UFR42; with Example 16 at 4 μg/ml) was <0.031 µg/mL. The MIC (KPN UFR42; [1]) was > 32 µg/mL, the MIC (KPN 6299; [1]) was 16 µg/mL and the “MIC ATB combined with Example 1 @8 μg/ml” value (KPN 6299; with Example 1 @8 μg/ml) was 16 µg/mL. For the same compound, the “MIC ATB combined with Example 1 @8 μg/ml” value (KPN 6299; with Example 1 at 8 μg/ml) was 16 µg/mL, the “MIC ATB combined with Example 7 @8 μgml” value (KPN 6299; with Example 7 at 8 μg/ml) was 2 µg/mL and the “MIC ATB combined with Example 9 @4 μg/ml” value (KPN 6299; with Example 9 @4 μg/ml) was <0.031 µg/mL. For the same compound, the “MIC ATB combined with Example 9 @4 μg/ml” value (KPN 6299; with Example 9 at 4 μg/ml) was <0.031 µg/mL, the “MIC ATB combined with Example 11 @8 μg/ml” value (KPN 6299; with Example 11 at 8 μg/ml) was <0.031 µg/mL and the “MIC ATB combined with Example 12 @8 μg/ml” value (KPN 6299; with Example 12 at 8 μg/ml) was <0.031 µg/mL. For the same compound, the “MIC ATB combined with Example 13 @8 μg/ml” value (KPN 6299; with Example 13 at 8 μg/ml) was 4 µg/mL, the “MIC ATB combined with Example 14 @8 μg/ml” value (KPN 6299; with Example 14 at 8 μg/ml) was <0.031 µg/mL and the “MIC ATB combined with Example 15 @4 μgml” value (KPN 6299; with Example 15 at 4 μg/ml) was “<=0.031 μg/mL”. For the same compound, the “MIC ATB combined with Example 16 @4 μg/ml” value (KPN 6299; with Example 16 at 4 μg/ml) was <0.031 µg/mL, the “MIC ATB combined with Example 1 @8 μg/ml” value (SPN 49619; with Example 1 @8 μg/ml) was 32 µg/mL and the “MIC ATB combined with Example 1 @8 μg/ml” value (SPN 49619; with Example 1 at 8 μg/ml) was 32 µg/mL. For the same compound, the “MIC ATB combined with Example 7 @8 μgml” value (SPN 49619; with Example 7 at 8 μg/ml) was >32 µg/mL, the “MIC ATB combined with Example 9 @4 μg/ml” value (SPN 49619; with Example 9 @4 μg/ml) was <0.031 µg/mL and the “MIC ATB combined with Example 9 @4 μg/ml” value (SPN 49619; with Example 9 at 4 μg/ml) was <0.031 µg/mL. For the same compound, the “MIC ATB combined with Example 11 @8 μg/ml” value (SPN 49619; with Example 11 at 8 μg/ml) was 32 µg/mL, the “MIC ATB combined with Example 12 @8 μg/ml” value (SPN 49619; with Example 12 at 8 μg/ml) was 4 µg/mL and the “MIC ATB combined with Example 13 @8 μg/ml” value (SPN 49619; with Example 13 at 8 μg/ml) was >32 µg/mL. For the same compound, the “MIC ATB combined with Example 14 @8 μg/ml” value (SPN 49619; with Example 14 at 8 μg/ml) was 4 µg/mL, the “MIC ATB combined with Example 15 @4 μgml” value (SPN 49619; with Example 15 at 4 μg/ml) was 32 µg/mL and the “MIC ATB combined with Example 16 @4 μg/ml” value (SPN 49619; with Example 16 at 4 μg/ml) was 16 µg/mL. The MIC (SPN 49619; Streptococcus pneumoniae, antibiotic alone, read-out: MIC ATB alone) was 32 µg/mL, the “MIC ATB combined with Example 1 @8 μg/ml” value (SAU 29213; with Example 1 @8 μg/ml) was 4 µg/mL and the “MIC ATB combined with Example 1 @8 μg/ml” value (SAU 29213; with Example 1 at 8 μg/ml) was 4 µg/mL. For the same compound, the “MIC ATB combined with Example 7 @8 μgml” value (SAU 29213; with Example 7 at 8 μg/ml) was 2 µg/mL, the “MIC ATB combined with Example 9 @4 μg/ml” value (SAU 29213; with Example 9 @4 μg/ml) was <0.031 µg/mL and the “MIC ATB combined with Example 9 @4 μg/ml” value (SAU 29213; with Example 9 at 4 μg/ml) was <0.031 µg/mL. For the same compound, the “MIC ATB combined with Example 11 @8 μg/ml” value (SAU 29213; with Example 11 at 8 μg/ml) was <0.031 µg/mL, the “MIC ATB combined with Example 12 @8 μg/ml” value (SAU 29213; with Example 12 at 8 μg/ml) was <0.031 µg/mL and the “MIC ATB combined with Example 13 @8 μg/ml” value (SAU 29213; with Example 13 at 8 μg/ml) was 4 µg/mL. For the same compound, the “MIC ATB combined with Example 14 @8 μg/ml” value (SAU 29213; with Example 14 at 8 μg/ml) was <0.031 µg/mL, the “MIC ATB combined with Example 15 @4 μgml” value (SAU 29213; with Example 15 at 4 μg/ml) was <0.031 µg/mL and the “MIC ATB combined with Example 16 @4 μg/ml” value (SAU 29213; with Example 16 at 4 μg/ml) was <0.031 µg/mL. It also gave an MIC (SAU 29213; Staphylococcus aureus, antibiotic alone, read-out: MIC ATB alone) of 2 µg/mL.
